This passage reports IC50 and Activity results from ChEMBL document CHEMBL3351633, “Anithiactins A-C, modified 2-phenylthiazoles from a mudflat-derived Streptomyces sp” (J Nat Prod, 2014).

One assay has as its target Acetylcholinesterase (Homo sapiens, UniProt P22303). Put plainly: Inhibition of AChE (unknown origin) assessed as inhibition of acetylcholine hydrolysis preincubated for 15 mins by Ellman method.
A further assay deals with ACHN. Put plainly: Cytotoxicity against human ACHN cells up to 200 uM by modified MTT assay. Type of assay: functional, cell-based.
The subject of a further assay is A498. Briefly: Cytotoxicity against human A498 cells up to 200 uM by modified MTT assay. Type of assay: functional, cell-based. (Tetrazolium assays rely on reduction of a dye to a coloured formazan, in cell work by metabolically active cells.)

pIC50: −log10 of the molar value. Activity calls are given as the source filed them. The rule behind the calls is not given here.

As a reminder, the pIC50 is −log10 of the IC50, conventionally taken in molar units.

Chain of Acetylcholinesterase (P22303 whole entry): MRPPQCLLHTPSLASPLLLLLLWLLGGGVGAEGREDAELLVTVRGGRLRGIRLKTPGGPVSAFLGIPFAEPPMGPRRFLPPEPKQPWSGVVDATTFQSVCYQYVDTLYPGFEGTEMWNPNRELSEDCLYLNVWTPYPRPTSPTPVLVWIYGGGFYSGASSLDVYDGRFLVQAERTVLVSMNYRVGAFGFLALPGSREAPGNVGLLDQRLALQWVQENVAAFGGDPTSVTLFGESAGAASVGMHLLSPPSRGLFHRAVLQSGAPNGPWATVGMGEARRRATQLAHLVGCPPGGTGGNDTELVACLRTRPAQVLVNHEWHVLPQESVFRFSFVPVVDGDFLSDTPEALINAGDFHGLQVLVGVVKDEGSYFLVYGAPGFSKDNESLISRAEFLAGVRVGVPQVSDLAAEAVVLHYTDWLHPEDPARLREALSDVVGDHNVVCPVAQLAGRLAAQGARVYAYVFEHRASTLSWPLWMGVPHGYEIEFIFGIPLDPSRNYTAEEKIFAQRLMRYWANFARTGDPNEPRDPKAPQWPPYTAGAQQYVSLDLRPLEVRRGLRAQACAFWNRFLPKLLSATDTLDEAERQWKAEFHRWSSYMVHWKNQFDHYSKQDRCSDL

For the compound `CNc1ccccc1-c1nc(C(=O)O)cs1`, the pIC50 on Acetylcholinesterase is 4.17. Besides, the outcome in the assay with ACHN and in the assay on A498 was inactive.
As to `CNc1ccccc1-c1nc(C(=O)OC)cs1`, at Acetylcholinesterase, the pIC50 was 4.20. Moreover, the result in the assay on ACHN and in the assay with A498 was inactive.
As to `CNc1ccccc1-c1nc(C(N)=O)cs1`, on Acetylcholinesterase, the pIC50 was 4.28. For the same compound, the result in the assay with ACHN and with A498 was inactive.
